In patent US20230112958A1, “Smart Drug Delivery System and Pharmaceutical Kit for Dual Nuclear Medical Cytotoxic Theranostics” (SCV-SpezialChemikalienVertrieb GmbH, priority 2019, published 2023):
Where two headings read alike, the source gives them in different places. Non-standard residues stand in square brackets, D forms with d. Residues, ends and D or L forms follow the SMILES beside them. *: point of attachment. Dolaproine = CO[C@@H]([C@@H]1CCCN1)[C@@H](C)C(=O)O; Dil = CC[C@H](C)[C@H](NC)[C@@H](CC(=O)O)OC; X1 = C[C@@H](N*)[C@@H](O)c1ccccc1; NMeV = CN[C@H](C(=O)O)C(C)C

Key:
LNCaP cells = assay: CellTiter Blue cytotoxicity assay; type: cell-based; details: for IC50: 72 hours incubation, read-out: IC50 (cytotoxic action in vitro)
Protocol: In a CellTiter Blue assay, LNCaP cells were incubated with the substance to be studied for 72 hours, and then the IC50 of the compound was determined.

PSMA = target: T1, PSMA (Homo sapiens, UniProt Q04609); assay: Cell-based competitive PSMA binding assay on LNCaP cells against reference 68Ga[Ga]PSMA-10
T1 construct: incubated in the wells with the LNCaP cells for 45 min; endogenous in cells; host or cells: LNCaP cells
T1 sequence (Q04609 whole entry): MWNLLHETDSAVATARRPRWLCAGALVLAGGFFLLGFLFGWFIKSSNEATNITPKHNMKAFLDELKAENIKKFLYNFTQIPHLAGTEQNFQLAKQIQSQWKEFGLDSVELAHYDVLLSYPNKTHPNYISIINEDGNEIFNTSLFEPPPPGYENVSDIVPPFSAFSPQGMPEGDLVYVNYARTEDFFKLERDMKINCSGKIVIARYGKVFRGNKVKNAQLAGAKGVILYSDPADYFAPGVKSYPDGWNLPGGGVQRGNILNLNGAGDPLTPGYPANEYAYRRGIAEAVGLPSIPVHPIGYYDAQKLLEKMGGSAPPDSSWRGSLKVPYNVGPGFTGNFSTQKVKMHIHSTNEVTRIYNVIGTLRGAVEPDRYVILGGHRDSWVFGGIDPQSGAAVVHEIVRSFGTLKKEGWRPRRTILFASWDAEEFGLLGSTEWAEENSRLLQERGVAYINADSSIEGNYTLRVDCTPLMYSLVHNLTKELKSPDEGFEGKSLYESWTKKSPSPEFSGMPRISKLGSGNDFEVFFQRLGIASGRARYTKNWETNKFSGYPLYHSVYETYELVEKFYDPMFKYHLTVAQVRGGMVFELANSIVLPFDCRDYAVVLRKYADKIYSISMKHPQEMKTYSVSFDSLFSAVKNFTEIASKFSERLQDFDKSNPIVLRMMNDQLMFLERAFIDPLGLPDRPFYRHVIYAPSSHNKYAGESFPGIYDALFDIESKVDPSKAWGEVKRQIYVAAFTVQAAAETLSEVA
Protocol: By means of a cell-based assay, the affinity of the target vector-linker units QS.KuE, QS.K.EuE and KuE with a lipophilic linker—analogously to PSMA-617—and the affinity of the substructures NH2.DOTAGA.617.KuE and NH2-DOTAGA.QS.KuE was determined. In addition, the PSMA affinity of the structure MMAE.ValCit.QS.617.KuE which is preferred in accordance with the invention (see scheme 30) was determined.
For the essay, LNCaP cells were pipetted into multiwell plates (Merck Millipore Multiscreen™). The compounds to be analyzed were each admixed with a defined amount or concentration of the reference compound ^68Ga[Ga]PSMA-10 with a known Kd value and incubated in the wells with the LNCaP cells for 45 min. After repeated washing, the cell-bound activity was determined.
In order to determine non-specific binding, all compounds were additionally admixed with an excess of the PSMA inhibitor 2-PMPA (2-(phosphonomethyl)-[…]) and subjected to the same LNCaP assay—as described above.

LNCaP tumor = test system: LNCaP tumor; design: species or system Balb/c mice; details: mouse, in vivo
Protocol: DATA.QS.KuE was labeled with ^68Ga and tested in vivo on LNCaP tumor-carrying Balb/c mice. […] The selectivity of binding was determined by means of competitive co-injection of the PSMA inhibitor PMPA. […] FIGS. 10a and 10b show the maximum-intensity projections from μPET studies with [^68Ga]-PSMA-11 and, respectively, [^68Ga]-DATA.QS.KuE in LNCaP tumor-carrying Balb/c. FIGS. 11a and 11b Showtime-activity curves of [^68Ga]-PSMA-11 and, respectively, [^68Ga]-DATA.QS.KuE. […] In the case of treatment with highly ionizing radionuclides, for example ^177Lu, rather than ^68Ga, DATA.QS.KuE enables a crucial reduction in nephrotoxicity.

Question: Which IC50 (LNCaP cells; Homo sapiens) does the source give for `CC[C@H](C)[C@@H]([C@@H](CC(=O)N1CCC[C@H]1[C@H](OC)[C@@H](C)C(=O)N[C@H](C)[C@@H](O)c1ccccc1)OC)N(C)C(=O)[C@@H](NC(=O)[C@@H](NC)C(C)C)C(C)C` [MMAE, Monomethyl-auristatin E, reference compound] (H-[NMeV]V[Dil][Dolaproine]-X1) here?
Answer: 0.29 ± 0.12 nM

Question: Which Ki (PSMA; LNCaP cells, competition with 68Ga[Ga]PSMA-10, 45 min incubation, calculated from inhibition curves, read-out: Ki (PSMA binding affinities)) does the source give for `O=C(O)CCC(NC(=O)NC(CCCCNC(=O)C(Cc1ccc2ccccc2c1)NC(=O)C1CCC(CNC(=O)CN2CCN(CC(=O)O)CCN(CC(=O)O)CCN(CC(=O)O)CC2)CC1)C(=O)O)C(=O)O` (stereo not drawn) [PSMA-617, reference compound] here?
Answer: 12.3 ± 3.1 nM

Question: And the IC50 (PSMA; LNCaP cells, competition with 68Ga[Ga]PSMA-10, 45 min incubation, read-out: IC50 (PSMA binding affinities))?
Answer: 15.1 ± 3.8 nM

Question: For `CCC(C)C(C(CC(=O)N1CCCC1C(OC)C(C)C(=O)NC(C)C(O)c1ccccc1)OC)N(C)C(=O)C(NC(=O)C(C(C)C)N(C)C(=O)OCc1ccc(NC(=O)C(CCCNC(N)=O)NC(=O)C(Nc2c(NCC3CCC(C(=O)NC(Cc4ccc5ccccc5c4)C(=O)NCCCCC(NC(=O)NC(CCC(=O)O)C(=O)O)C(=O)O)CC3)c(=O)c2=O)C(C)C)cc1)C(C)C` (stereo not drawn) [MMAE.ValCit.QS.617.KuE], which “cell cytotoxicity in vitro compared with pure active ingredient MMAE” value (LNCaP cells; 72 hours) is on record?
Answer: somewhat lower

Question: What about the IC50 (LNCaP cells) of the same compound?
Answer: 32.2 ± 5.7 nM

Question: What about the IC50 (PSMA) of the same compound?
Answer: 198.1 ± 1.9 nM

Question: And the Ki (PSMA)?
Answer: 162 ± 3.3 nM

Question: Which results are given for `CN(CC(=O)O)C1(CCCCC(=O)NCCNc2c(NCCCC[C@H](NC(=O)N[C@@H](CCC(=O)O)C(=O)O)C(=O)O)c(=O)c2=O)CN(CC(=O)O)CCN(CC(=O)O)C1` [DATA.QS.KuE]?
Answer: kidney exposure/dose by comparison with PSMA-11 (LNCaP tumor): considerably lower; tumor enrichment by comparison with PSMA-11 (LNCaP tumor): approximately the same
